Patent US12630580B2, “5′-O-phenylacetyluridine and therapeutic use” (PHARMA CINQ, LLC, priority 2020, dated 2026)

Experiments:
[1] = Plasma concentrations of uridine, PB and metabolites after oral administration (comparative bioavailability)
Description: The delivery of phenylacetate into the bloodstream after oral administration of PAU was also assessed. Sodium phenylbutyrate is used in clinical practice as an ammonia scavenger in hepatic encephalopathy or genetic nitrogen cycle disorders, or as a chaperone or histone deacetylase inhibitor. It is predominantly metabolized to phenylacetate via beta-oxidation in the liver, and phenylacetate mediates the therapeutic benefits of phenylbutyrate. PAU was administered orally at a dose equimolar to 200 mg/kg sodium phenylbutyrate. Female BALB/c mice (n=3-5 group) were given test compounds p.o. and after 30 minutes were retro-orbitally bled to obtain plasma. […] An equimolar dose or uridine was used as a comparator for efficiency of delivery of uridine into the circulation by oral administration of PAU.

TNFα = assay: LPS-induced elevation of plasma TNFα (inflammation model); assay type: in vivo; conditions: female BALB/c mice; for TNF α ± SEM: plasma one hour after LPS
Description: Injection of bacterial cell wall constituent lipopolysaccharide (LPS) has been used as a model of inflammation. The inflammatory cascade can lead to cellular and organ damage when unchecked.
Female BALB/c mice […] of age (n=7-8/group) were treated with Vehicle (0.75% HPMC) or PAU p.o. and 30 minutes later LPS (2.5 mg/kg i.p.) was administered. One hour after LPS, mice were sacrificed and blood was collected for measurement of plasma TNFα.

[2] = female BALB/c mice, p.o., dose equimolar to 200 mg/kg sodium phenylbutyrate, plasma 30 minutes after dosing

| Compound | Elevation of plasma uridine and uracil compared with equimolar dose of oral uridine ([1]; oral, mice) | TNF α ± SEM (TNFα; PAU 165 mg/kg p.o. 30 minutes before LPS 2.5 mg/kg i.p., Vehicle 15,981 ± 2,951) | TNF α ± SEM (TNFα; PAU 331 mg/kg p.o. 30 minutes before LPS 2.5 mg/kg i.p., p < .05 compared to Vehicle (15,981 ± 2,951)) | Anti-inflammatory effect in the LPS-induced elevation of plasma TNFα (TNFα; p.o.) | Plasma concentration of PA (phenylacetate) [1, 2] [µM] | Plasma concentration of PB (phenylbutyrate) [1, 2] [µM] |
| --- | --- | --- | --- | --- | --- | --- |
| O=C(Cc1ccccc1)OC[C@H]1O[C@@H](n2ccc(=O)[nH]c2=O)[C@H](O)[C@@H]1O [PAU, 5′-O-Phenylacetyluridine] | elevated plasma uridine and uracil better | 10,068 ± 2,583 pg/ml | 7,034 ± 1,236 + pg/ml | significant anti-inflammatory effect | – | – |
| sodium phenylbutyrate [NaPB] | – | – | – | – | 401 | 26 |
